Common to all, as to test: Test B pre-/postemergence plant response
Common to all, as to type: in vivo
Details in all cases: 1000 g ai/ha, 0 to 100 scale (0 no effect, 100 complete control)

In assay [1] the test system is barnyardgrass (Echinochloa crus-galli). The text has this:
(§1) Seeds of plant species selected from bamyardgrass (Echinochloa crus-galli), kochia (Kochia scoparia), ragweed (common ragweed, Ambrosia elatior), Italian ryegrass (Lolium multiflorum), large (Lg) crabgrass (Digitaria sanguinalis), giant foxtail (Setaria faberii), momingglory (Ipomoea spp.), pigweed (Amaranthus retroflexus), velvetleaf (Abutilon theophrasti), wheat (Triticum aestivum), and corn (Zea mays) were planted into a blend of loam soil and sand and treated preemergence with a directed soil spray using test chemicals formulated in a non-phytotoxic solvent mixture which included a surfactant. At the same time, plants selected from these crop and weed species and also blackgrass (Alopecurus myosuroides), and galium (catchweed bedstraw, Galium aparine) were planted in pots containing the same blend of loam soil and sand and treated with postemergence applications of test chemicals formulated in the same manner. Plants ranged in height from 2 to 10 cm and were in the one- to two-leaf stage for the postemergence treatment. Treated plants and untreated controls were maintained in a greenhouse for approximately 10 days, after which time all treated plants were compared to untreated controls and visually evaluated for injury. Plant response ratings, summarized in Table B, are based on a 0 to 100 scale where 0 is no effect and 100 is complete control. A dash (-) response means no test result.

For assay [2], the system named is giant foxtail (Setaria faberii).
Text: as §1

In assay [3] the test system is wheat (Triticum aestivum).
Text: as §1

The test system of assay [4] is large (Lg) crabgrass (Digitaria sanguinalis).
Text: as §1

Assay [5] concerns pigweed (Amaranthus retroflexus).
Text: as §1

The test system of the next assay is corn (Zea mays).
Text: as §1

Assay [6] deals with velvetleaf (Abutilon theophrasti).
Text: as §1

Assay [7] has as its system morningglory (Ipomoea spp.).
Text: as §1

Turning to `ClCc1cc(-c2ccccc2Oc2ncc(Cl)cn2)no1` [Compound 34], the “Plant response rating, Barnyardgrass” value in assay [1] (Postemergence) and in assay [1] (Preemergence) was 0 throughout. For the same compound, the “Plant response rating, Foxtail, Giant” value in assay [2] (Postemergence) came to 0; in assay [2] (Preemergence), 10. Further, the “Plant response rating, Wheat” value in assay [3] (Postemergence) and in assay [3] (Preemergence) was 0 each time. In addition, the “Plant response rating, Crabgrass, Large” value in assay [4] (Postemergence) and in assay [4] (Preemergence) was 10 throughout. Besides, the “Plant response rating, Pigweed” value in assay [5] (Postemergence) is 40; in assay [5] (Preemergence) it was 100. Besides, the “Plant response rating, Corn” value with corn (Zea mays) (Postemergence) and with corn (Zea mays) (Preemergence) was 0 throughout. Further, the “Plant response rating, Velvetleaf” value in assay [6] (Postemergence) came out at 20; in assay [6] (Preemergence), 10. Moreover, the “Plant response rating, Morningglory” value in assay [7] (Postemergence) and in assay [7] (Preemergence) was 0 in each case.
In the case of `N#CCc1cc(-c2ccccc2Oc2ncc(Cl)cn2)no1` [Compound 36], the results for the “Plant response rating, Barnyardgrass” value in assay [1] (Postemergence) and in assay [1] (Preemergence) were 90 and 30, respectively. Besides, the “Plant response rating, Foxtail, Giant” value in assay [2] (Postemergence) and in assay [2] (Preemergence) was 90 throughout. Also, the “Plant response rating, Wheat” value is 50 in assay [3] (Postemergence) and 0 in assay [3] (Preemergence). Further, the “Plant response rating, Crabgrass, Large” value was 80 in assay [4] (Postemergence) and 100 in assay [4] (Preemergence). The “Plant response rating, Pigweed” value is 90 in assay [5] (Postemergence) and 100 in assay [5] (Preemergence). Besides, the “Plant response rating, Corn” value in the assay on corn (Zea mays) (Postemergence) is 50; with corn (Zea mays) (Preemergence) it was 0. Besides, the “Plant response rating, Velvetleaf” value in assay [6] (Postemergence) is 100. For the same compound, the “Plant response rating, Morningglory” value in assay [7] (Postemergence) came out at 20; in assay [7] (Preemergence), 10.
For `Clc1cnc(Oc2ccccc2-c2ncco2)nc1` [Compound 61], the results for the “Plant response rating, Barnyardgrass” value in assay [1] (Postemergence) and in assay [1] (Preemergence) were 10 and 20, respectively. In addition, the entries for the “Plant response rating, Foxtail, Giant” value in assay [2] (Postemergence) and in assay [2] (Preemergence) were 0 and 40, respectively. In addition, the “Plant response rating, Wheat” value in assay [3] (Postemergence) and in assay [3] (Preemergence) was 0 each time. Also, the “Plant response rating, Crabgrass, Large” value in assay [4] (Postemergence) is on record as 0; in assay [4] (Preemergence), 50. The figures for the “Plant response rating, Pigweed” value in assay [5] (Postemergence) and in assay [5] (Preemergence) were 60 and 90, respectively. The “Plant response rating, Corn” value in the assay on corn (Zea mays) (Postemergence) and in the assay on corn (Zea mays) (Preemergence) was 0 throughout. Moreover, the “Plant response rating, Velvetleaf” value was found to be 70 in assay [6] (Postemergence) and 50 in assay [6] (Preemergence). Besides, the “Plant response rating, Morningglory” value in assay [7] (Postemergence) was found to be 10; in assay [7] (Preemergence), 0.

Source of the values: US10131652B2, “Pyrimidinyloxy benzene derivatives as herbicides” (E. I. DU PONT DE NEMOURS AND COMPANY, priority 2014, dated 2018).
